These results are taken from paper PMC2707030 (Clinical cancer research : an official journal of the …, 2009).

Each structure is given as a SMILES string.

A short description of series [1]: Population pharmacokinetics. The format is in vivo, human.
The conditions of series [2]: cited from earlier work.
The conditions of series [3]: rats; cited from earlier work.
Series [4] deals with ATP-binding cassette transporter ABCB1 (P-glycoprotein, MDR1). The note with it: cited from earlier work.
Setting [5] is: nonparametric bootstrap, 1342 converged of 1500 runs, 98 patients, final model.

Consider `C/C=C1\NC(=O)[C@H]2CSSCC/C=C/[C@H](CC(=O)N[C@H](C(C)C)C(=O)N2)OC(=O)[C@H](C(C)C)NC1=O` [romidepsin], for which the “CL, non-carriers of ABCB1 2677 GA/AA” value in series [1] (difference to carriers did not reach statistical criteria (ΔOFV = 3.4)) is 16 L/h. Moreover, the Estimated elimination half-life in series [1] (following 4-hour infusion, 14 or 18 mg/m^2, final two-compartment model) was 3.5 h. Moreover, the “CL, carriers of ABCB1 2677 GA/AA” value in series [1] (n=7, difference to non-carriers did not reach statistical criteria (ΔOFV = 3.4)) was found to be 13 L/h. For the same compound, in series [1] (setting [5]), the “CL, bootstrap analysis median (%RSE)” value is reported as 15.9 (6.2) L/h; the “Q, bootstrap analysis median (%RSE)” value is listed as 1.01 (14.7) L/h; the “V1, bootstrap analysis median (%RSE)” value is recorded as 9.71 (8.9) L; the “V2, bootstrap analysis median (%RSE)” value is given as 4.73 (11.1) L. The “Total clearance reported in adults” value in series [2] (dose 13 mg/m^2) was 4.8 L/h/m^2. For the same compound, in series [2] (dose 17.8 mg/m^2), the “Mean CL reported in adults” value is on record as 10.5 L/h/m^2. Also, the “Fraction of the dose excreted into the bile” value in series [3] was 66%. Further, the “Substrate of ABCB1” value in series [4] is listed as “substrate”.
